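Values below derive from 48-hour exposures of cells grown in 96-well plates, with endpoints linearly interpolated between the two concentrations bracketing the appropriate inhibition level. GI50 = concentration required for 50% inhibition of growth.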 Activity calls are given as the source filed them. Cut-off read from the data, not from the text of the source: active = GI50 up to about 1.1 µM and inactive = higher.
Key:
Assay in all cases: inhibition of tumour cell growth, NCI panel, 48 h
HOP-92 = system: HOP-92
786-0 = system: 786-0
SNB-19 = system: SNB-19
RXF 393 = system: RXF 393
MOLT-4 = system: MOLT-4
SK-MEL-2 = system: SK-MEL-2
TK-10 = system: TK-10
U-251 = system: U-251
UACC-257 = system: UACC-257
OVCAR-8 = system: OVCAR-8
M14 = system: M14
SN12C = system: SN12C
NCI-H226 = system: NCI-H226
SNB-75 = system: SNB-75
COLO 205 = system: COLO 205
HCT-15 = system: HCT-15

Measured: GI50

Cc1ncc(CCl)c2c1OC(C)(C)OC2
inactive: HOP-92 32.2 µM | 786-0 20.8 µM | SNB-19 63.8 µM | RXF 393 16 µM | MOLT-4 42.5 µM | SK-MEL-2 > 100 µM | TK-10 > 100 µM | U-251 14.4 µM | UACC-257 77.1 µM | OVCAR-8 67.1 µM | M14 36.4 µM | SN12C 35.6 µM | NCI-H226 > 100 µM

COc1ccc(C(=O)c2c(C(C(=O)c3ccc(OC)cc3)C(=O)c3ccc(OC)cc3)n(C(=O)c3ccc(OC)cc3)c3ccccc23)cc1
inactive: HOP-92 > 100 µM | 786-0 > 100 µM | SNB-19 > 100 µM | RXF 393 > 100 µM | MOLT-4 > 100 µM | SK-MEL-2 > 100 µM | TK-10 > 100 µM | U-251 > 100 µM | SNB-75 > 100 µM | OVCAR-8 > 100 µM | M14 > 100 µM | COLO 205 > 100 µM | SN12C > 100 µM | NCI-H226 > 100 µM
> 100 µM: HCT-15

N=C(N)NCCCC(NCc1c2ccccc2[n+]([O-])c2ccccc12)C(=O)O (centres undefined)
inactive: 786-0 38.9 µM | SNB-19 55.6 µM | MOLT-4 27.1 µM | SK-MEL-2 > 100 µM | TK-10 > 100 µM | U-251 77.4 µM | UACC-257 > 100 µM | SNB-75 28.2 µM | OVCAR-8 52.5 µM | M14 85.5 µM | COLO 205 > 100 µM | SN12C 52.7 µM | NCI-H226 35.5 µM
32.9 µM: HCT-15

CC(C)=CCC/C(C)=C/Cc1c(O)ccc2c1[nH]c1cc(O)c(C)cc12
inactive: HOP-92 > 25 µM | 786-0 9.48 µM | SNB-19 9.46 µM | RXF 393 14 µM | MOLT-4 6.07 µM | SK-MEL-2 > 25 µM | TK-10 > 25 µM | U-251 10 µM | OVCAR-8 9.46 µM | M14 11.8 µM | COLO 205 > 25 µM | SN12C 14.6 µM | NCI-H226 15.6 µM
9.71 µM: HCT-15

Cc1cc(NS(=O)(=O)c2ccc(NC(=O)c3cccn4c(=O)c5ccccc5nc34)cc2)no1
inactive: HOP-92 > 100 µM | 786-0 > 100 µM | SNB-19 > 100 µM | RXF 393 > 100 µM | MOLT-4 > 100 µM | TK-10 > 100 µM | U-251 > 100 µM | UACC-257 > 100 µM | SNB-75 > 100 µM | OVCAR-8 > 100 µM | M14 > 100 µM | COLO 205 > 100 µM | SN12C > 100 µM | NCI-H226 > 100 µM

COc1cc(O)c(C(=O)C2Cc3ccccc32)c(OC)c1 (centres undefined)
32.9 µM: HCT-15
inactive: HOP-92 35.9 µM | 786-0 44.2 µM | SNB-19 > 100 µM | RXF 393 20.3 µM | MOLT-4 16.9 µM | SK-MEL-2 34.3 µM | TK-10 > 100 µM | U-251 64.3 µM | UACC-257 47.3 µM | SNB-75 37.7 µM | OVCAR-8 48.3 µM | M14 33.9 µM | COLO 205 > 100 µM | SN12C 46.5 µM | NCI-H226 22.6 µM

CC/C=C/c1cc2c(c3[nH]ccc13)[C@@H](C)CC2C.CC/C=C/c1cc2cc[nH]c2c2c1C(C)C[C@@H]2C.CCc1cc2c(c3[nH]ccc13)[C@@H](C)CC2C (some centres undefined)
inactive: 786-0 17 µM | SNB-19 19.2 µM | RXF 393 12.2 µM | SK-MEL-2 15.4 µM | TK-10 22.1 µM | U-251 18 µM | UACC-257 16 µM | SNB-75 10 µM | OVCAR-8 17.2 µM | M14 13.5 µM | COLO 205 20.9 µM | SN12C 15.1 µM | NCI-H226 15.2 µM

Cc1nc(C(=O)O)c2ccccc2n1
inactive: HOP-92 > 100 µM | 786-0 > 100 µM | SNB-19 > 100 µM | RXF 393 > 100 µM | MOLT-4 > 100 µM | SK-MEL-2 > 100 µM | TK-10 > 100 µM | U-251 > 100 µM | UACC-257 > 100 µM | SNB-75 > 100 µM | OVCAR-8 > 100 µM | COLO 205 > 100 µM | SN12C > 100 µM

CCN(CC)/C(=C\Cl)Nc1ccccn1.[O-][Cl+3]([O-])([O-])O
> 100 µM: HCT-15
inactive: HOP-92 > 100 µM | 786-0 > 100 µM | SNB-19 > 100 µM | RXF 393 > 100 µM | MOLT-4 > 100 µM | SK-MEL-2 > 100 µM | TK-10 > 100 µM | U-251 > 100 µM | UACC-257 > 100 µM | SNB-75 > 100 µM | OVCAR-8 > 100 µM | M14 > 100 µM | COLO 205 > 100 µM | SN12C > 100 µM | NCI-H226 > 100 µM

CCc1cc(C)cc2[n+]1CC=C2C.[O-][Cl+3]([O-])([O-])[O-]
inactive: HOP-92 8.63 µM | 786-0 > 100 µM | SNB-19 > 100 µM | RXF 393 27.3 µM | SK-MEL-2 > 100 µM | TK-10 > 100 µM | U-251 > 100 µM | UACC-257 27.3 µM | SNB-75 > 100 µM | OVCAR-8 > 100 µM | M14 > 100 µM | COLO 205 > 100 µM | SN12C > 100 µM | NCI-H226 > 100 µM

O=C1OC(CC(=O)c2ccc(Cl)c(Cl)c2)C(Cl)=C1Cl (centres undefined)
inactive: 786-0 > 100 µM | SNB-19 79.3 µM | RXF 393 > 100 µM | MOLT-4 38.7 µM | SK-MEL-2 > 100 µM | TK-10 > 100 µM | U-251 > 100 µM | UACC-257 > 100 µM | SNB-75 > 100 µM | OVCAR-8 > 100 µM | M14 > 100 µM | COLO 205 > 100 µM | SN12C > 100 µM | NCI-H226 68.9 µM
> 100 µM: HCT-15

O=c1[nH]c(=O)n(C2OC(CO)C(O)C2O)cc1/N=N/NCc1ccccc1 (centres undefined)
> 65 µM: HCT-15
inactive: HOP-92 > 100 µM | 786-0 > 100 µM | SNB-19 > 100 µM | RXF 393 > 79.4 µM | MOLT-4 > 100 µM | SK-MEL-2 > 100 µM | TK-10 > 100 µM | U-251 > 100 µM | UACC-257 > 100 µM | SNB-75 > 100 µM | OVCAR-8 > 100 µM | M14 > 100 µM | COLO 205 > 69.2 µM | SN12C > 100 µM | NCI-H226 > 100 µM

CCCCCCCC(=O)OCC1OC(n2cc(F)c(=O)[nH]c2=O)C(N)C(OC(=O)CCCCCCC)C1O (centres undefined)
18.5 µM: HCT-15
inactive: HOP-92 18.4 µM | 786-0 19.4 µM | SNB-19 17.5 µM | RXF 393 18 µM | MOLT-4 15.5 µM | SK-MEL-2 18.8 µM | TK-10 23.4 µM | U-251 19.5 µM | UACC-257 17.8 µM | SNB-75 15 µM | OVCAR-8 17.8 µM | M14 17.9 µM | COLO 205 18.5 µM | SN12C 17.5 µM

CCCNC(=O)c1cc2ccccc2cc1C(=O)OC
> 100 µM: HCT-15
inactive: HOP-92 59.2 µM | 786-0 > 100 µM | SNB-19 > 100 µM | MOLT-4 > 100 µM | SK-MEL-2 > 100 µM | TK-10 > 100 µM | U-251 > 100 µM | UACC-257 > 100 µM | SNB-75 19.3 µM | OVCAR-8 > 100 µM | M14 > 100 µM | COLO 205 > 100 µM | SN12C > 100 µM | NCI-H226 83.4 µM

CC(=O)OCc1ncccc1C(OC(C)=O)OC(C)=O
inactive: HOP-92 > 100 µM | 786-0 > 100 µM | SNB-19 > 100 µM | RXF 393 > 100 µM | MOLT-4 > 100 µM | SK-MEL-2 > 100 µM | TK-10 > 100 µM | U-251 > 100 µM | UACC-257 > 100 µM | SNB-75 > 100 µM | OVCAR-8 > 100 µM | M14 > 100 µM | COLO 205 > 100 µM | SN12C > 100 µM
> 100 µM: HCT-15

Cc1nc(-c2ccccc2)cc2c1c(=O)oc1ccccc12
> 100 µM: HCT-15
inactive: HOP-92 > 100 µM | 786-0 > 100 µM | SNB-19 > 100 µM | RXF 393 > 100 µM | MOLT-4 > 100 µM | SK-MEL-2 > 100 µM | U-251 > 100 µM | UACC-257 > 100 µM | SNB-75 83.4 µM | OVCAR-8 > 100 µM | M14 > 100 µM | COLO 205 > 100 µM | SN12C > 100 µM | NCI-H226 > 100 µM

CCN(CC)CCCC(C)Nc1c2cc(OC)cc(C)c2nc2c(C)c(Cl)ccc12 (centres undefined)
1.78 µM: HCT-15
inactive: HOP-92 1.22 µM | 786-0 1.64 µM | SNB-19 1.68 µM | RXF 393 2.09 µM | MOLT-4 1.74 µM | SK-MEL-2 1.87 µM | TK-10 1.73 µM | U-251 1.85 µM | UACC-257 1.81 µM | SNB-75 1.68 µM | OVCAR-8 1.78 µM | M14 2.02 µM | COLO 205 1.64 µM | SN12C 1.57 µM | NCI-H226 1.82 µM

CC1CCC2[C@@H](C)COC3O[C@]4(C)CCC1C32OO4 (some centres undefined)
> 100 µM: HCT-15
inactive: HOP-92 > 100 µM | 786-0 > 100 µM | SNB-19 > 100 µM | RXF 393 > 100 µM | SK-MEL-2 > 100 µM | TK-10 > 100 µM | U-251 > 100 µM | UACC-257 > 100 µM | SNB-75 91.6 µM | OVCAR-8 > 100 µM | M14 > 100 µM | COLO 205 > 100 µM | SN12C > 100 µM | NCI-H226 > 100 µM

COc1ccc2cc3n(c(=O)c2c1)CCc1c-3cc(OC)c(OC)c1OC
> 100 µM: HCT-15
inactive: HOP-92 > 100 µM | 786-0 > 100 µM | SNB-19 > 100 µM | MOLT-4 > 100 µM | SK-MEL-2 56 µM | TK-10 > 100 µM | U-251 50.6 µM | UACC-257 > 100 µM | SNB-75 34.7 µM | OVCAR-8 > 100 µM | M14 > 100 µM | COLO 205 > 100 µM | SN12C > 100 µM | NCI-H226 > 100 µM

— ChEMBL document CHEMBL1201862, “PubChem BioAssay data set” (2004)
